This note sets out measurements from US20250188032A1, “NITROGEN-CONTAINING HETEROCYCLIC COMPOUNDS AND USES THEREOF” (BNH RESEARCH CO., LTD., priority 2022, published 2025).

One assay deals with HDAC2 (Homo sapiens, UniProt Q92769). The assay can be described thus: HDAC catalytic activity, fluorogenic substrate. The note with it: 10-dose, 3-fold serial dilution starting at 100 μM, duplicates. The format is biochemical. On the procedure:
(§1) The compound (racemate) was resuspended in 100 mM DMSO and tested in a 10-dose IC50 with 3-fold serial dilution starting at 100 μM against HDACs 1-9, and 11. As reference compounds, Trichostatin A (TSA) and TMP269 were tested in a 10-dose IC50 with 3-fold serial dilution starting at 10 μM or 1 μM.
(§2) 10 μM Fluorogenic peptide from p53 residues 379-382 (RHKK(Ac)AMC) was used for the substrate for HDAC 1, 2, 3, and 6, 50 μM Fluorogenic HDAC Class2a Substrate (Trifluoroacetyl Lysine) was used for the substrate for HDAC 4, 5, 7, 9, and 11, 100 μM Fluorogenic peptide from p53 residues 379-382 (RHK(Ac)K(Ac)AMC) was used for the substrate for HDAC8.
(§3) IC50 values were calculated using the GraphPad Prism 4 program based on a sigmoidal dose-response equation and the blank (DMSO) value concentration was entered as 1.00E-12 M for curve fitting.

A further assay addresses HDAC9 (Homo sapiens, UniProt Q9UKV0). The assay can be described thus: HDAC catalytic activity, fluorogenic substrate. Particulars: 10-dose, 3-fold serial dilution starting at 100 μM, duplicates. In kind it is biochemical. On the procedure:
as §1, §2, §3

In the next assay the target is HDAC5 (Homo sapiens, UniProt Q9UQL6). Nature of the assay: HDAC catalytic activity, fluorogenic substrate. In kind it is biochemical. The note with it: 10-dose, 3-fold serial dilution starting at 100 μM, duplicates. The procedure: as §1, §2, §3
HDAC5, sequence (Q9UQL6 whole entry, species assumed): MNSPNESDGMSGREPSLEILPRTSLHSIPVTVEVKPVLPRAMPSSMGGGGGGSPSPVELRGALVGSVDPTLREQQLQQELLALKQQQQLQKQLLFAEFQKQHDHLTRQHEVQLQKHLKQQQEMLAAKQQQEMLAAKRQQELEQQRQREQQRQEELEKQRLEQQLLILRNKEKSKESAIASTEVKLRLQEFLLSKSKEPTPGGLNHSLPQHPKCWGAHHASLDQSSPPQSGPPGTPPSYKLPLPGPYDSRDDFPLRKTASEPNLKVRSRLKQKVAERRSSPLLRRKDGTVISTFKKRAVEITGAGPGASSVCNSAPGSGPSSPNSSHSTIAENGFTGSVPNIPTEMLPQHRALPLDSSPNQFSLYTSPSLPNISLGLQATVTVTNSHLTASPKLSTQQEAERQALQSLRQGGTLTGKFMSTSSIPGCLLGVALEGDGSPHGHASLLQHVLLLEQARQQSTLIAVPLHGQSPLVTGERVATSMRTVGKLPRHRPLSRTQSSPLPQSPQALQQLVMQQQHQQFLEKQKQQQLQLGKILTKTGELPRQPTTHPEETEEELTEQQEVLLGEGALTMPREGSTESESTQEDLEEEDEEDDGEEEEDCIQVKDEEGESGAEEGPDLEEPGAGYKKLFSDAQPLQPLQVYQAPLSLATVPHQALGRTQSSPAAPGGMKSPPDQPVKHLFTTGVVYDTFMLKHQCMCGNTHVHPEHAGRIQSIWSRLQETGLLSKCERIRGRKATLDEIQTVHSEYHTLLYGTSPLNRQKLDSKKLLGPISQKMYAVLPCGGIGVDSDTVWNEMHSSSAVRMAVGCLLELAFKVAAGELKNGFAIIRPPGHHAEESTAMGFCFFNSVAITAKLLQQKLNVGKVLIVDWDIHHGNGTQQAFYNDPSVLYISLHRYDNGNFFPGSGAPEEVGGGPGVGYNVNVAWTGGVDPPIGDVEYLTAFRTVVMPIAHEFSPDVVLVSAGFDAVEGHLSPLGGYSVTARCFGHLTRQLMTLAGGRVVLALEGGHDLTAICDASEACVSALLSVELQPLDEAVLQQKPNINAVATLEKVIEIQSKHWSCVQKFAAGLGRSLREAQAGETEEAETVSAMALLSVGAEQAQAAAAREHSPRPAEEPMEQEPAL
For a further assay, the target named is T1, HDAC8 (Homo sapiens, UniProt Q9BY41).
T1 sequence (Q9BY41 1-377): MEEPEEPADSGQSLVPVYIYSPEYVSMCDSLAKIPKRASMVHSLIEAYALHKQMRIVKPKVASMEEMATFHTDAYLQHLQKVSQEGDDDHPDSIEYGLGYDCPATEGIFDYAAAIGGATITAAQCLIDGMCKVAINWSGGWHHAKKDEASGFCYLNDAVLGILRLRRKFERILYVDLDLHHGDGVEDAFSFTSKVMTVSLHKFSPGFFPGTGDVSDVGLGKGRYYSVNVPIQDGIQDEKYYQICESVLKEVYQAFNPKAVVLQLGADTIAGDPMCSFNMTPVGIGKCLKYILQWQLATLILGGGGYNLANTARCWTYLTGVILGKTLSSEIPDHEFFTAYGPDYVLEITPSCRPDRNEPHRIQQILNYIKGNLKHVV
Nature of the assay: HDAC catalytic activity, fluorogenic substrate. Particulars: 10-dose, 3-fold serial dilution starting at 100 μM, duplicates. The format is biochemical. On the procedure: as §1, §2, §3

Assay [1] has as its system BDNF and GluN2B expression in 293T cells. The assay can be described thus: RT-PCR of BDNF and GluN2B mRNA in 293T cells. The note with it: 6 hours after treating 293T cells, vs untreated group. In kind it is cell-based, human. The procedure:
RT-PCR was used to measure the amount of BDNF and GluN2B in response to compounds of the present disclosure. 293T cells were dissociated using 0.05% Trypsin-EDTA solution and seeded in 24 well or 6 well dishes for RNA work. After incubation at 37° C. in a humidified atmosphere with 5% CO2 for 24 hours, the culture medium was replaced by a medium containing a series of concentrations of tested compounds diluted with the DMEM without FBS. Time course experiments were performed. The same volume of DMSO was used for negative control.
RNA was isolated from the cells after the compound treatment. After removing growth media, 0.3 to 0.4 mL of TRIzol™ per 1×10^5 to 10^7 cells were added directly to the culture dish to lyse the cells. […] RNA concentration was determined with the Thermo Scientific™ ρDrop™ plate. RNA quality was determined by measuring A230/260 and A260/280 ratio. […]
The PCR product was analyzed by agarose gel electrophoresis. […]
The BnH12 series drug according to the present disclosure was synthesized as a compound targeting HDAC4, which inhibits the expression of BDNF. […] In addition, it is known that the increase in the expression of BDNF increases the expression of GluN2B, and the mRNA level of GluN2B was also measured together with BDNF to measure the efficacy of BnH12001 in degrading HDAC4.

Assay [2] deals with APP/PS1 mice hippocampus (Schaffer collateral-CA1). The assay can be described thus: fEPSP slope and LTP in hippocampus of Alzheimer's animal model. In kind it is in vivo. The note with it: 15 months old.
Procedure: For intravenous injection, the tail vein injection method was used. […] In the drug injection test, the compound was administered once a day for about 11 to 13 days. 5 mice were used for the compound administration group and the control group, respectively.
For TC or hippocampus slice preparation. 9 to 10 weeks-old male C57BL/6J mice were anesthetized with isoflurane. Then, the brain was rapidly cooled via transcardial perfusion with ice-cold sucrose-artificial cerebrospinal fluid (aCSF). The brain was removed and placed in ice-cold sucrose aCSF. Paracoronal slices were prepared at an angle of 50° relative to the midline on a ramp at an angle of 10°. […]
Field recordings were made with a concentric bipolar electrode positioned in the stratum radiatum of the CA1 region using an extracellular glass pipette (3.5 MΩ) filled with aCSF. […] In all fEPSP experiments, the test stimulation were measured prior to the beginning of all the experiments (30 μA) and a test-pulse stimulation strength that evokes 50% of the maximum fEPSP was used. Baseline synaptic responses was recorded for 30 minutes, and then long-term potentiation (LTP) was induced by high-frequency stimulation (HFS; 100 Hz, 4 trains, 1 s duration, 20 s inter-train interval). […]
Excitatory postsynaptic potential (EPSP) was recorded by the whole-cell patch clamp method using a patch clamp amplifier (molecular devices, USA). […]

HDAC9, sequence (Q9UKV0 whole entry): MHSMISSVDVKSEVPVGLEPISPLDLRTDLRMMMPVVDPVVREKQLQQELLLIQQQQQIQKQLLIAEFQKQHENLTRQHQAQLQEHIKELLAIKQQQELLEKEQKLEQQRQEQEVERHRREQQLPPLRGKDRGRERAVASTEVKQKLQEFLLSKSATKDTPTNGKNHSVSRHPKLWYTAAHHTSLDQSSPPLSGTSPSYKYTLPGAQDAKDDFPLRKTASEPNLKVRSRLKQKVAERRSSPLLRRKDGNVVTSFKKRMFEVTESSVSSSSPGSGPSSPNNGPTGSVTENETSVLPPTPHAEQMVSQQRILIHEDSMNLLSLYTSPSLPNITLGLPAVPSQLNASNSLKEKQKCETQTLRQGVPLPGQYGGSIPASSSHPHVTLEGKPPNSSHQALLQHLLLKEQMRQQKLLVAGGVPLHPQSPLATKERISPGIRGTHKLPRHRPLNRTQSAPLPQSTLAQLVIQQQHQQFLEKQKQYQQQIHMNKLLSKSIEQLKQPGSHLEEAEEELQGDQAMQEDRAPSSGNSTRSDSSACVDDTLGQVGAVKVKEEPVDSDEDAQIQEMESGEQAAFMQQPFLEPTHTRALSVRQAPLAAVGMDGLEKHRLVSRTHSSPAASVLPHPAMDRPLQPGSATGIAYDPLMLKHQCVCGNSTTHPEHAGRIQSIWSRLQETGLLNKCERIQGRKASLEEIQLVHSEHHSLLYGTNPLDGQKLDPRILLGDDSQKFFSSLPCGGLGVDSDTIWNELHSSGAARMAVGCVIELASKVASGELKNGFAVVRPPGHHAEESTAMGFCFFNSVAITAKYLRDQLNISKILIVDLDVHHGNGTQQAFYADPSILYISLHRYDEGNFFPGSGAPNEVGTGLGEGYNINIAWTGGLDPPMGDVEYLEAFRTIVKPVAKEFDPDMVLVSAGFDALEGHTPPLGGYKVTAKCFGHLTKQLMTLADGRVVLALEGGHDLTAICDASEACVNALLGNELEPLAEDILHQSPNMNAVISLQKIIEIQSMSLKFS
HDAC2, sequence (Q92769 whole entry): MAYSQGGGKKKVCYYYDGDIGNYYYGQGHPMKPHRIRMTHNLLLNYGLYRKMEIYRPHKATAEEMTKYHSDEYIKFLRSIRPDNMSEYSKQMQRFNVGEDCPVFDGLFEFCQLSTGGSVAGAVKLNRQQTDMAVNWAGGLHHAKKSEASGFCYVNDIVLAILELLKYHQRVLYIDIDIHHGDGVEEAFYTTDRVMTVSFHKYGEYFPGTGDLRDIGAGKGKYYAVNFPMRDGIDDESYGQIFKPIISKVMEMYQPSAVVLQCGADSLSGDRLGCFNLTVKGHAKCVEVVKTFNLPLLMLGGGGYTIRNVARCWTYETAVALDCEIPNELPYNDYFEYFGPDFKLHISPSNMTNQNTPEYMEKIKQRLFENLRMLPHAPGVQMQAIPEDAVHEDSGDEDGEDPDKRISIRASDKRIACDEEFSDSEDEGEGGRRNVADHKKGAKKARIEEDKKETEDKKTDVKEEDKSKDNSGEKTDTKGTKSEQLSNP

As for `CC1CCC(C(=O)O)CN1C(=O)Cc1ccc(F)cc1Cl` (racemic) [BnH12001, 1-(2-(2-chloro-4-fluorophenyl)acetyl)-6-methylpiperidine-3-carboxylic acid], the “Inhibitory effect on HDAC2 catalytic activity” value at HDAC2 was “did not show any inhibitory effect”. For the same molecule, at HDAC9, the “Inhibitory effect on HDAC9 catalytic activity” value was “did not show any inhibitory effect”. In addition, the “Inhibitory effect on HDAC5 catalytic activity” value at HDAC5 is “did not show any inhibitory effect”. Besides, the “Inhibitory effect on HDAC8 catalytic activity” value at HDAC8 was “did not show any inhibitory effect”. Besides, in assay [1], the “BDNF mRNA level” value is “significantly increased” and the “GluN2B mRNA level” value was “significantly increased”.

With `C[C@@H]1CC[C@H](C(=O)O)CN1C(=O)Cc1ccc(F)cc1Cl` [BnH12001 enantiomer (3S,6R, 98%<), (3S,6R)-1-(2-(2-chloro-4-fluorophenyl)acetyl)-6-methylpiperidine-3-carboxylic acid], in assay [2], the “Slope of fEPSP in CA1 region of Schaffer collateral circuit (synaptic efficacy)” value is recorded as “increased synaptic efficacy” and the “Synaptic long-term potentiation (LTP) of the excitatory SC pathway” value is on record as “significantly increased”.
